Assay results from patent publication US10323018B2 (Millennium Pharmaceuticals, Inc., priority 2015, dated 2019).

Assays:
PC3 cells = test: PC3 growth inhibition (Cell-titer glo, 72 hours); assay type: cell-based; details: Homo sapiens, PC-3, 72 h, read-out: Percent Viability, PC3 cells, compound concentration 1.667 μM, 72 hours
Summary of the method: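 PC3 cells grown in RPMI1640 plated at 8×10^4 cells/ml, incubated overnight, then exposed to compound diluted in AIM serum-free medium for 72 h at 37 °C, 5% CO2. Luminescence by CellTiter-Glo relative to DMSO controls; % viability at single concentration, GI50 or LD50 from concentration-response curves.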

hNAMPT protein = hNAMPT protein (Homo sapiens (Human), UniProt P43490); test: NAMPT enzyme assay (TR-FRET/HTRF with BodiPY ligand); assay type: binding; details: for inhibition at 1 µM: NAMPT inhibition at compound concentration 1 μM, read-out: Percent Inhibition; for IC50: NAMPT inhibition, IC50 range class
Sequence of hNAMPT protein (P43490 whole entry): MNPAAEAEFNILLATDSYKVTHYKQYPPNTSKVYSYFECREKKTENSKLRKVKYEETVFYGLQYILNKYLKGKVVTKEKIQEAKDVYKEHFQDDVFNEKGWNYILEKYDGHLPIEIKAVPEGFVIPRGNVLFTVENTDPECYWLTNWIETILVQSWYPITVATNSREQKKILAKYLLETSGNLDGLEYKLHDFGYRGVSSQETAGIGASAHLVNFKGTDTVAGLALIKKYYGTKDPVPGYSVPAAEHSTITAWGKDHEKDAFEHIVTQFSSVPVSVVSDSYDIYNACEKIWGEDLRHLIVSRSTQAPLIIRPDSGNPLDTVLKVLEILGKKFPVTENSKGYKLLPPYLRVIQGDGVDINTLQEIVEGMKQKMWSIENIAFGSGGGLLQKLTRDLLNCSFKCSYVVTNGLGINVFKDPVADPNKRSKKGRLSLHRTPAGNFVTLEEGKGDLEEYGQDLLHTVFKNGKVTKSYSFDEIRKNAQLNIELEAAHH
Summary of the method: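 His-tagged hNAMPT with anti-6His-Tb, incubated with compound and BodiPY ligand for 1 h at rt in the dark, in Tris-HCl pH 7.5 buffer with DTT, NaCl, MgCl2 and Tween 20. TR-FRET measured with 320 nm excitation as the 520/486 nm emission ratio. IC50 fitted relative to DMSO controls.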

| SMILES | viability at 1.667 µM (PC3 cells) [%] | inhibition at 1 µM (hNAMPT protein) [%] | IC50 (hNAMPT protein) [nM] |
| --- | --- | --- | --- |
| CCOc1cc(-c2ccc(F)cc2)nc2cc(C(=O)N[C@H]3C[C@@H](c4ncc[nH]4)C3)ccc12 [Compound I-60, 4-Ethoxy-2-(4-fluorophenyl)-N-[cis-3-(1H-imidazol-2-yl)cyclobutyl]quinoline-7-carboxamide] | 1 | 99 | < 10 |
| CCOc1cc(OCC)c2ccc(C(=O)NCCCc3ncc[nH]3)cc2n1 [Compound I-61, N-(3-(1H-Imidazol-2-yl)propyl)-2,4-diethoxyquinoline-7-carboxamide] | 2 | 99 | < 10 |
| CCOc1cc(N2CCCC2)nc2cc(C(=O)NCCCc3ncc[nH]3)ccc12 [Compound I-62, 4-Ethoxy-N-[3-(1H-imidazol-2-yl)propyl]-2-(pyrrolidin-1-yl)quinoline-7-carboxamide] | 2 | 95 | 50 to 100 |
| Cc1nc(-c2ccc(Cl)cc2)nc2cc(C(=O)NCCCc3nnc[nH]3)ccc12 [Compound I-63, N-(3-(4H-1,2,4-triazol-3-yl)propyl)-2-(4-chlorophenyl)-4-methylquinazoline-7-carboxamide] | 7 | 77 | > 100 |
| COCCOCc1nc(-c2ccc(Cl)cc2)nc2cc(C(=O)NCCCc3nnc[nH]3)ccc12 [Compound I-64, N-(3-(4H-1,2,4-yriazol-3-yl)propyl)-2-(4-chlorophenyl)-4-((2-methoxyethoxy)methyl)quinazoline-7-carboxamide] | 1 | 91 | 50 to 100 |
| CCOc1c(F)c(-c2ccnc(OC)c2)nc2cc(C(=O)NCCCc3[nH]nnc3C)ccc12 [Compound I-65, 4-ethoxy-3-fluoro-2-(2-methoxypyridin-4-yl)-N-[3-(4-methyl-1H-1,2,3-triazol-5-yl)propyl]quinoline-7-carboxamide] | 1 | 91 | 50 to 100 |
| COCCOc1cc(-c2ccc(F)cc2)nc2cc(C(=O)NCCCc3n[nH]nc3C)ccc12 [Compound I-66, 2-(4-fluorophenyl)-4-(2-methoxyethoxy)-N-[3-(5-methyl-2H-1,2,3-triazol-4-yl)propyl]quinoline-7-carboxamide] | 2 | 94 | 10 to 50 |
| COCCOc1cc(-c2ccnc(OC)c2)nc2cc(C(=O)NCc3ccn4ncnc4c3)ccc12 [Compound I-67] | 3 | 85 | – |
| CCOc1cc(-c2cc(OC)ncc2F)nc2cc(C(=O)NCCCc3[nH]nnc3C)ccc12 [Compound I-68, 4-ethoxy-2-(5-fluoro-2-methoxypyridin-4-yl)-N-[3-(4-methyl-1H-1,2,3-triazol-5-yl)propyl]quinoline-7-carboxamide] | 1 | 92 | 10 to 50 |
| COCCOc1cc(-c2ccnc(C)c2)nc2cc(C(=O)NCc3ccn4ncnc4c3)ccc12 [Compound I-69, 4-(2-methoxyethoxy)-2-(2-methylpyridin-4-yl)-N-([1,2,4]triazolo[1,5-a]pyridin-7-ylmethyl)quinoline-7-carboxamide] | 4 | 86 | > 100 |
| CCOc1cc(-c2ccnc(OC)c2)nc2cc(C(=O)NCc3ccn4ncnc4c3)ccc12 [Compound I-70, 4-ethoxy-2-(2-methoxypyridin-4-yl)-N-([1,2,4]triazolo[1,5-a]pyridin-7-ylmethyl)quinoline-7-carboxamide] | 1 | 99 | < 10 |
| CCOc1cc(-c2ccnc(OC)c2)nc2cc(C(=O)NCCCc3[nH]nnc3C)ccc12 [Compound I-71, 4-ethoxy-2-(2-methoxypyridin-4-yl)-N-[3-(4-methyl-1H-1,2,3-triazol-5-yl)propyl]quinoline-7-carboxamide] | 2 | 97 | 10 to 50 |
